In USRE47761E1, “Anti-axl antibodies and methods of use” (Genentech, Inc., priority 2010, dated 2019):
Entries after “also recorded” stand apart in the source; their conditions may differ.

Tests used:
A549 xenograft = settings: for reduction in tumor growth as a single agent: A549, FIG. 9A, erlotinib 100 mg/kg/day oral gavage
Experimental: (§1) Mice were removed from the study when their tumor size reached 800 mm^3, and the animals remaining in each group (% remaining) were plotted. C. […] 12A11 and anti-VEGF was administrated IP at 30 mg/kg and 1 mg/kg, respectively, twice a week, starting when the mean tumor size reached 100 mm^3 (day 0). […] Cell lysates from tumors were analyzed by Western blot for Axl expression. […] Tumors from mice treated as above in D were excised at 0 and 72 hr post dosing and tumor vasculature was visualized by staining with MECA32 immunohistochemistry and quantified by image analysis (expressed as microns square).
All studies were conducted in accordance with the “Guide for the Care and Use of Laboratory Animals” (NIH), and approved by the Institutional Animal Care and Used Committee (IACUC). A total of 5×10^6 (A549) or 10^7 cells in matrigel (MDA-MB-231) were implanted subcutaneously into right flank of nude (A549) or SCID mice (MDA-MB-231), respectively. When the average tumor sized reached 100 mm^3, mice were randomized and divided into different treatment groups (n=10 for each group). Anti-Axl or control IgG1 antibodies were at administrated at 10-30 mg/kg, anti-VEGF at 1-2 mg/kg, via intraperitoneal injection (IP), twice weekly. Erlotinib was administrated by oral gavage at 100 mg/kg/day. Paclitaxel and carboplatin were administrated subcutaneously at 6.25 mg/kg/day for 5 days, and 100 mg/kg for a single dose, respectively, at the beginning of the treatment. Statistic analyses were performed using Anova two-way for comparison of tumor growth in different treatment groups.

MDA-MB-231 xenograft = MDA-MB-231 xenograft tumor growth; format: in vivo, SCID mice
[1] = test system: MDA-MB-231 breast cancer cells; test: MDA-MB-231 metastasis after tail vein injection (bioluminescence); format: in vivo, SCID mice
Experimental: A. Bioluminescence imaging 4 weeks after tail vein injection of tumor cells. Mice were injected intraperitoneally (i.p.) with 200 μL of 25 mg/ml D-luciferin (Invitrogen) in PBS and were anesthetized during imaging using isoflurane via nose cone. Bioluminescence images were acquired on the Photon Imager (Biospace Lab, Paris, France) that has an intensified charge-coupled device camera. B. H & E staining of the tibia sections.
For metastasis studies, 5×10^5 MDA-MB-231 cells stably transfected with a luciferase reporter gene (Li et al, 2009) were implanted into SCID mice via tail vein injection. Metastasis of tumor cells to various organs was monitor by bioluminescence detection as described (Li et al, 2009).

[2] = test system: tumor-associated macrophages; test: Cytokine/chemokine secretion from tumor-associated macrophages of MDA-MB-231 xenografts; format: in vivo, mice; settings: MDA-MB-231 tumors treated one week, 20 mg/kg, versus control antibody
Experimental: (§2) Cell lysates from tumors were used in Western blot analysis for Axl expression. […] F. Axl is highly expressed in infiltrating macrophages of primary human breast cancer. Immunohistochemistry was used to examine 79 primary tumors. 21% of these tumors express high levels of Axl in the infiltrating macrophages. Macrophages were identified by staining with anti-CD68, and expression of Axl on macrophages was determined by anti-Axl/CD68 dual IHC. Serial sections were used. […] Tumor associated macrophages were isolated by sorting for F4/80 positive cells and cultured overnight. Cytokines and chemokines secreted into the medium were measured using the Bio-Plea mouse cytokine assay kit.
Tumors were dissected, chopped into small pieces and incubated in RPMI1640 medium with 2.5% FBS, 0.2 units/ml Liberase Blendzymes II and 5 units/ml DNaseI, (Roche). Tumor cells were disassociated using MACS Dissociator (Miltenyi Biotec) and maintained for 20 minutes at room temperature. EDTA (final concentration 0.002%) was added to stop the reaction. Single cell suspensions were prepared, and red blood cells were removed using RBC lysis buffer (eBioscience). […] Cultured media was collected and the levels of cytokines and chemokines were determined using Bio-Plex mouse cytokine assays (Bio-Rad) according to manufacturer's instructions.

Akt = test: Gas6-induced Akt phosphorylation in H1299 cells (Western blotting); format: cell-based, human; settings: pre-incubated 4 hrs, Gas6 30 minutes
Experimental: (§3) A-B. Affinity measurement of YW327.6S2 using BIAcore. Association rates (kon) and dissociation rates (koff) were calculated using the one-to-one Langmuir binding model. The equilibrium dissociation constant (Kd) was derived as the […]. C. […] Plates were coated with anti-human IgG Fc, and then incubated with human Axl, Mer, Tyro3 Fcs, mouse or cynomolgus AxlFcs. After washing, isotype control antibody or YW327.6S2 was added and followed by HRP conjugated anti-human IgG. […] FIG. 7D: ELISA. Plates were coated with anti-human IgG Fc and incubated with human Axl-Fc. After washing, Gas6 was added with or without antibodies. Binding of Gas6 was detected by biotylated anti-Gas6 antibody and streptavidin-HRP conjugate. FIG. 7E: FACS. […] Binding of Gas6 to the cell surface was detected by biotylated anti-Gas6 antibody and streptavidin-PE conjugate. […] Phosphorylated Axl was measured by ELISA (upper panel), and phosphorylated Akt by Western Blotting analysis (lower panel). […] Cell viability was measured by CellTiter Glo assay.

cynomolgus Axl = test: Cross reaction ELISA, cynomolgus Axl; format: binding
Experimental: as §3
ELISA assays were performed as follows: goat anti-human IgG Fc coated plates were blocking with 0.5% BSA, PBS, 0.05% Tween 20 (PBST). […] Secreted Ang-2 and DKK3 was measured using R&D ELISA kit, according to the manufacturer's instruction. Axl expression on cell surface was determined by FACS using standard techniques. […] Samples were analyzed on BD FACScalibur Flow Cytometer.

tumor vasculature [3] = test: Intra-tumoral vascular density (MECA32) in MDA-MB-231 xenograft tumors; format: in vivo, SCID mice; settings: MDA-MB-231 tumors
Experimental: as §2
(§4) Tumor samples were stained with MECA32, a pan endothelial cell marker. Images were acquired by the Ariol SL-50 automated slide scanning platform (Genetix Ltd.; Hampshire, UK) at 100× final magnification. Tumor-specific areas were exported for analysis in the Metamorph software package (MDS Analytical Technologies; Ontario, Canada) as individual 8-bit images. […] Area measurements were recorded for individual vessels, as well as the tumor and non-tumor areas in each image. Raw values based on image analysis were analyzed using the JMP 8.0 software (SAS Institute, Inc. North Carolina, USA). […]

A549 xenograft tumors = test: Cleaved caspase 3 and Ki67 IHC of A549 xenograft tumors; format: in vivo, mice; settings: A549 tumors treated two weeks, versus control
Experimental: B. Kaplan-Meier curve of various treatment groups. […] C. 12A11 enhances the effect of anti-VEGF.
Xenograft tumor samples were fixed in 10% neutral buffered formalin, processed, embedded in paraffin, and sectioned at 4 μm. Thin sections were then treated with primary antibodies for Ki67, cleaved caspase 3 and MECA32, followed by biotinylated secondary antibodies and the DAB chromagen.

tumor vasculature [4] = test: Intratumoral vascular density (MECA32) in A549 xenograft tumors; format: in vivo, mice
Experimental: as §1
as §4, with “images. The brown DAB-specific staining was isolated from the Hematoxylin counterstain using a blue-normalization algorithm as described (Brey et al, 2003).” for “images.”

[5] = biological target: T1, human Axl ECD-His protein (human, UniProt P30530 26-451); test: SPR (BIAcore-3000); anti-Axl human IgG captured by anti-human IgG, human Axl ECD-His injected
T1 construct: also called Hu Axl; not shown: His tag
T1 sequence (P30530 other isoform, or with tags, fused parts or gaps): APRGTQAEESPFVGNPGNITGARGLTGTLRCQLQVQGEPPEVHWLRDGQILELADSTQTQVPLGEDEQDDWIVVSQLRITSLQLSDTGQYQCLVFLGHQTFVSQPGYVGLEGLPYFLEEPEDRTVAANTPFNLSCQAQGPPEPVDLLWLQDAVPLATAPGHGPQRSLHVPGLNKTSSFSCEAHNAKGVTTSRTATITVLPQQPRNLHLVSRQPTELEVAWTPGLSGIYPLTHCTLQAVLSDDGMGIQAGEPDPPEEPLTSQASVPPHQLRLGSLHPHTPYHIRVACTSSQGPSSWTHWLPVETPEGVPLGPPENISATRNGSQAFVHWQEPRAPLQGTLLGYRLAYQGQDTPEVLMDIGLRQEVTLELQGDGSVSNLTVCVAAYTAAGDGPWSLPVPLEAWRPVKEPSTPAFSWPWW

`C#Cc1cccc(Nc2ncnc3cc(OCCOC)c(OCCOC)cc23)c1` [erlotinib, reference compound] was tested, and the “reduction in tumor growth as a single agent” value (A549 xenograft) was 30%.

In the case of “YW327.6S2: Affinity matured phage-derived human anti-Axl monoclonal antibody, from clone YW327.6”, the “reduction of tumor growth, antibody alone” value (MDA-MB-231 xenograft; 20 mg/kg IP twice a week) is reported as 25%, the “reduction in tumor growth, combination therapy with anti-VEGF” value (MDA-MB-231 xenograft; 20 mg/kg with anti-VEGF 2 mg/kg) is reported as 50% and the “sites detected by bioluminescence, total for the entire group” value ([1]; four weeks after injection, control group total 18) is reported as 7. The “metastasis of MDA-MB-231 cells (sites detected by bioluminescence), in words” value ([1]; versus control antibody) was “significantly reduced; also recorded: reduces”, the “inflammatory cytokines and chemokines produced by TAMs” value [2] was “much lower levels; also recorded: inhibits” and the “Gas6-induced phosphorylation of Akt” value (Akt) was “blocks”. For the same molecule, the “binding to cynomolgus Axl” value (cynomolgus Axl) was “binds; also recorded: cross reacts”, the “intra-tumoral vascular density, single antibody versus control” value (tumor vasculature [3]) was “significantly reduced; also recorded: reduces” and the “tumor associated vascular density, combination with anti-VEGF” value (tumor vasculature [3]) was “further reduction”. For the same molecule, the “reduction in tumor growth as a single agent” value (A549 xenograft) was 30%, the “tumor growth inhibition by single agent” value (A549 xenograft; A549, YW327.6S2 10 mg/kg or anti-VEGF 1 mg/kg IP twice a week) was 30% and the “duration of tumor stasis after treatment cessation” value (A549 xenograft; A549, co-administration with anti-VEGF) was “at least 4 weeks”. The “effect on the anti-tumor effect of anti-VEGF” value (A549 xenograft; A549, combination with anti-VEGF 1 mg/kg) was “enhances”, the “tumor re-growth from last dose to day 85” value (A549 xenograft; A549, in combination with anti-VEGF) was “no tumor re-growth” and the “survival at end of experiment (Kaplan-Meier, tumor size 800 mm^3 cutoff)” value (A549 xenograft; A549, in combination with anti-VEGF, day 85) was “survival of all the animals”. The “delay of tumor growth compared to a single agent” value (A549 xenograft; A549, in combination with anti-VEGF, dosed 60 days, followed to day 85) was “significantly delayed tumor growth”, the “reduction of tumor growth rate in combination with erlotinib” value (A549 xenograft; mouse, in vivo) was “more than 50%” and the “tumor growth inhibition by the combination treatment” value (A549 xenograft; mouse, in vivo) was 60%. The Ki67 positive nuclei (A549 xenograft tumors) was “no significant difference”, the “cleaved caspase 3 (CC3), apoptosis” value (A549 xenograft tumors) was “increased; also recorded: induces apoptosis” and the “intratumoral vascular density, antibody alone” value (tumor vasculature [4]) was “did not significantly reduced”. The “intratumoral vascular density, combination with anti-VEGF” value (tumor vasculature [4]) was “significant decrease; also recorded: enhances the effect of anti-VEGF in reducing intra-tumoral vascular density”.

B1: YW327.6S2 (antibody, V domains shown)
VH: EVQLVESGGGLVQPGGSLRLSCAASGFSLSGSWIHWVRQAPGKGLEWVGWINPYRGYAYYADSVKGRFTISADTSKNTAYLQMNSLRAEDTAVYYCAREYSGWGGSSVGYAMDYWGQGTLV
VL: DIQMTQSPSSLSASVGDRVTITCRASQDVSTAVAWYQQKPGKAPKLLIYSASFLYSGVPSRFSGSGSGTDFTLTISSLQPEDFATYYCQQSYTTPPTFGQGTKVEIKR
Work on B1 yielded a Kd [5] of roughly 1 nM.
